Experimental data taken from patent US11485742B2, “2-azaspiro[3.4]octane derivatives as M4 agonists” (NOVARTIS AG, priority 2019, dated 2022).

Molecular target: T1, Cloned human M1 receptor (CHRM1) (Homo sapiens, UniProt P11229)
T1 construct: expressed in transfected cells; host or cells: HEK293
T1 sequence (P11229 1-460): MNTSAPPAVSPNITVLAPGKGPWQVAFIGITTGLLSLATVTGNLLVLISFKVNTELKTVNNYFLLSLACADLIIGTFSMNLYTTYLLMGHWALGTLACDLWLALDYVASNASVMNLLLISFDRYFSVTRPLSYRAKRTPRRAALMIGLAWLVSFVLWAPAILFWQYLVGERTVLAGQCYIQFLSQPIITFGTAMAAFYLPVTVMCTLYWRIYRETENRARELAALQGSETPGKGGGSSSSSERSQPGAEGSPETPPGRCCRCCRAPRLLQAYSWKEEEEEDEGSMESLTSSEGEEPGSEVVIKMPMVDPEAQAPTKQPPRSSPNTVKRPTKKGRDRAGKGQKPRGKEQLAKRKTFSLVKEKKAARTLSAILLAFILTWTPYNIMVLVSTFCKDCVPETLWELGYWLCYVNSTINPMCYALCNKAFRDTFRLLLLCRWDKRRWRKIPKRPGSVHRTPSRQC
Test: CHRM1 Ca++ Flux Assay (HEK293 M1 cells, agonist mode)
Assay type: cell-based
Conditions: for Emax: Percent Activity (PA), read-out: M1 FDSS PA %; for EC50: geometric mean if tested more than once, read-out: M1 FDSS EC50
Procedure, shortened: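 In agonist mode, compound-induced intracellular Ca++ mobilization was recorded for 3 min by fluorescent imager. The cells were HEK293 stably expressing cloned human CHRM1, in Ca/Mg-free HBSS with 20 mM HEPES. Triplicate 11-point dose-responses were fitted by four-parameter regression and normalized to the carbachol EC100 response.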

Row | Compound | Emax [%] | EC50 [nM]
1 | Fc1ccc(OC2CC3(COC3)C2)c(C2CCN([C@H]3COC4(C3)CN(c3nnco3)C4)CC2)c1 [Example 7A, (R)-7-(4-(2-((2-oxaspiro[3.3]heptan-6-yl)oxy)-5-fluorophenyl)piperidin-1-yl)-2-(1,3,4-oxadiazol-2-yl)-5-oxa-2-azaspiro[3.4]octane] | 0 | > 25000
2 | CC(C)(O)CCOc1ccc(F)cc1C1CCN([C@@H]2COC3(C2)CN(c2nnco2)C3)CC1 [Example 1N, (S)-4-(2-(1-(2-(1,3,4-oxadiazol-2-yl)-5-oxa-2-azaspiro[3.4]octan-7-yl)piperidin-4-yl)-4-fluorophenoxy)-2-methylbutan-2-ol] | 82 | 376
3 | Fc1ccc(OCC2CCOCC2)c(C2CCN([C@@H]3COC4(C3)CN(c3nnco3)C4)CC2)c1 [Example 1J, (S)-7-(4-(5-fluoro-2-((tetrahydro-2H-pyran-4-yl)methoxy)phenyl)piperidin-1-yl)-2-(1,3,4-oxadiazol-2-yl)-5-oxa-2-azaspiro[3.4]octane] | 73 | 4090
4 | Cc1nnc(COc2ccc(F)cc2C2CCN([C@@H]3COC4(C3)CN(c3nnco3)C4)CC2)s1 [Example 2E, (S)-7-(4-(5-fluoro-2-((5-methyl-1,3,4-thiadiazol-2-yl)methoxy)phenyl)piperidin-1-yl)-2-(1,3,4-oxadiazol-2-yl)-5-oxa-2-azaspiro[3.4]octane] | 112 | 116
5 | Fc1ccc(OC2CC3(COC3)C2)c(C2CCN([C@@H]3COC4(C3)CN(c3ncon3)C4)CC2)c1 [Example 6C, (S)-7-(4-(2-((2-oxaspiro[3.3]heptan-6-yl)oxy)-5-fluorophenyl)piperidin-1-yl)-2-(1,2,4-oxadiazol-3-yl)-5-oxa-2-azaspiro[3.4]octane] | 65 | 2420
6 | Fc1ccc(OC2CC3(COC3)C2)c(C2CCN([C@@H]3COC4(C3)CN(c3nnco3)C4)CC2)c1 [Example 2L, (S)-7-(4-(2-((2-oxaspiro[3.3]heptan-6-yl)oxy)-5-fluorophenyl)piperidin-1-yl)-2-(1,3,4-oxadiazol-2-yl)-5-oxa-2-azaspiro[3.4]octane] | 47 | 2220
7 | Fc1ccc(OC2COCOC2)c(C2CCN([C@@H]3COC4(C3)CN(c3nnco3)C4)CC2)c1 [Example 1M, (S)-7-(4-(2-((1,3-dioxan-5-yl)oxy)-5-fluorophenyl)piperidin-1-yl)-2-(1,3,4-oxadiazol-2-yl)-5-oxa-2-azaspiro[3.4]octane] | 89 | 1370
8 | Fc1ccc(OC2CCOCC2)c(C2CCN([C@@H]3COC4(C3)CN(c3ncon3)C4)CC2)c1 [Example 6A, (S)-7-(4-(5-fluoro-2-((tetrahydro-2H-pyran-4-yl)oxy)phenyl)piperidin-1-yl)-2-(1,2,4-oxadiazol-3-yl)-5-oxa-2-azaspiro[3.4]octane] | 53 | 887
9 | COCCOc1ccc(F)cc1C1CCN([C@@H]2COC3(C2)CN(c2nnco2)C3)CC1 [Example 1L, (S)-7-(4-(5-fluoro-2-(2-methoxyethoxy)phenyl)piperidin-1-yl)-2-(1,3,4-oxadiazol-2-yl)-5-oxa-2-azaspiro[3.4]octane] | 75 | 1320
10 | Fc1ccc(OC[C@H]2CCCO2)c(C2CCN([C@@H]3COC4(C3)CN(c3nnco3)C4)CC2)c1 [Example 2M, (S)-7-(4-(5-fluoro-2-(((R)-tetrahydrofuran-2-yl)methoxy)phenyl)piperidin-1-yl)-2-(1,3,4-oxadiazol-2-yl)-5-oxa-2-azaspiro[3.4]octane] | 7 | 3570
11 | Fc1ccc(OCC2COC2)c(C2CCN([C@@H]3COC4(C3)CN(c3nncs3)C4)CC2)c1 [Example 2A, (S)-7-(4-(5-fluoro-2-(oxetan-3-ylmethoxy)phenyl)piperidin-1-yl)-2-(1,3,4-thiadiazol-2-yl)-5-oxa-2-azaspiro[3.4]octane] | 103 | 553
12 | Fc1ccc(OCC2CC3(COC3)C2)c(C2CCN([C@@H]3COC4(C3)CN(c3nnco3)C4)CC2)c1 [Example 2S, (S)-7-(4-(2-((2-oxaspiro[3.3]heptan-6-yl)methoxy)-5-fluorophenyl)piperidin-1-yl)-2-(1,3,4-oxadiazol-2-yl)-5-oxa-2-azaspiro[3.4]octane] | 53 | 5410
13 | c1ccc(C2CCN([C@@H]3COC4(C3)CN(c3nnco3)C4)CC2)c(-c2ncco2)c1 [Example 1X, (S)-2-(1,3,4-oxadiazol-2-yl)-7-(4-(2-(oxazol-2-yl)phenyl)piperidin-1-yl)-5-oxa-2-azaspiro[3.4]octane] | 99 | 1230
14 | Cc1nnc(-c2ccccc2C2CCN([C@@H]3COC4(C3)CN(c3nnco3)C4)CC2)o1 [Example 1Y, (S)-7-(4-(2-(5-methyl-1,3,4-oxadiazol-2-yl)phenyl)piperidin-1-yl)-2-(1,3,4-oxadiazol-2-yl)-5-oxa-2-azaspiro[3.4]octane] | 107 | 579
